Data from US20100298141A1, “SUBSTITUTED PYRIDINE N-OXIDE HERBICIDES” (E. I. DU PONT DE NEMOURS AND COMPANY, priority 2007, published 2010).

Legend:
[1] = system: Russian thistle; assay: Test F preemergence test; assay type: in vivo, Salsola kali; conditions: scale 0 to 100
From the text: (§1) Seeds of plant species selected from bermudagrass (Cynodon dactylon), Surinam grass (Brachiaria decumbens), large crabgrass (Digitaria sanguinalis), green foxtail (Setaria viridis), goosegrass (Eleusine indica), johnsongrass (Sorghum halepense), kochia (Kochia scoparia), pitted morningglory (Ipomoea lacunosa), purple nutsedge (Cyperus rotundus), common ragweed (Ambrosia elation), mustard (Brassica nigra), guineagrass (Panicum maximum), […] (Paspalum dilatatum), barnyardgrass (Echinochloa crus-galli), southern sandbur (Cenchrus echinatus), common sowthistle (Sonchus oleraceous), prickly […] spinosa), Italian ryegrass (Lolium multiflorum), common purslane (Portulaca oleracea), broadleaf signalgrass (Brachiaria platyphylla), common groundsel (Senecio vulgaris), common chickweed (Stellaria media), Virginia dayflower (Commelina virginica), annual bluegrass (Poa annua), naked crabgrass (Digitaria nuda), […] cochinchinensis), quackgrass (Elytrigia repens), Canada horseweed (Conyza canadensis), field bindweed (Convolvulus arvensis), […] (Bidens bipinnata), common mallow (Malva sylvestris), Russian thistle (Salsola kali), and sugarcane (Saccharum officinarum) were planted and treated preemergence with test chemicals formulated in a non-phytotoxic solvent mixture which included a surfactant. At a different time, sugarcane was treated with postemergence applications of some of the test chemicals formulated in the same manner. Plants were approximately 3- to 4-leaf stage for the postemergence treatments. Treated plants and controls were maintained in a greenhouse for 14 to 21 days, after which time all species were compared to controls and visually evaluated. […] A dash (-) response means no test result.

[2] = system: chickweed; assay: Test C postemergence test; assay type: in vivo, Stellaria media; conditions: for Plant response rating (0 to 100), Chickweed: 31 g ai/ha; for Plant response rating, Chickweed: scale 0 to 100, 0 no effect, 100 complete control
Description: (§2) At the same time, plants selected from these crop and weed species and also winter barley (Hordeum vulgare), canarygrass (Phalaris minor), and chickweed (Stellaria media) were treated with postemergence applications of some of the test chemicals formulated in the same manner. Plants ranged in height from 2 to 18 cm (1- to 4-leaf stage) for postemergence treatments. […] At time of treatment, test pots were flooded to 3 cm above the soil surface, treated by application of test compounds directly to the paddy water, and then maintained at that water depth for the duration of the test. Treated plants and controls were maintained in a greenhouse for 13 to 15 days, after which time all species were compared to controls and visually evaluated. […] A dash (-) response means no test result.

[3] = system: canarygrass; assay: Test C postemergence test; assay type: in vivo, Phalaris minor; conditions: for Plant response rating (0 to 100), Canarygrass: 31 g ai/ha; for Plant response rating, Canarygrass: scale 0 to 100, 0 no effect, 100 complete control
Description: as §2

[4] = system: common sowthistle; assay: Test F preemergence test; assay type: in vivo, Sonchus oleraceous; conditions: scale 0 to 100
From the text: as §1

[5] = system: winter barley; assay: Test C postemergence test; assay type: in vivo, Hordeum vulgare; conditions: for Plant response rating (0 to 100), Barley: 31 g ai/ha; for Plant response rating, Barley: scale 0 to 100, 0 no effect, 100 complete control
Description: as §2

[6] = system: windgrass; assay: Test C pre-/postemergence test; assay type: in vivo, Apera spica-venti; conditions: Postemergence; for Plant response rating, Windgrass: scale 0 to 100, 0 no effect, 100 complete control
From the text: Seeds of plant species selected from blackgrass (Alopecurus myosuroides), downy brome (Bromus tectorum), green foxtail (Setaria viridis), Italian ryegrass (Lolium multiflorum), wheat (Triticum aestivum), wild oat (Avena fatua), catchweed bedstraw (Galium aparine), Russian thistle (Salsola kali), […] (Cynodon dactylon), Surinam grass (Brachiaria decumbens), cocklebur (Xanthium strumarium), corn (Zea mays), crabgrass (Digitaria sanguinalis), woolly cupgrass (Eriochloa villosa), giant foxtail (Setaria faberii), Goosegrass (Eleusin indica), johnsongrass (Sorghum halepense), kochia (Kochia scoparia), lambsquarters (Chenopodium album), morningglory (Ipomoea coccinea), eastern black nightshade (Solanum ptycanthum), yellow nutsedge (Cyperus esculentus), pigweed (Amaranthus retroflexus), common ragweed (Ambrosia elation), soybean (Glycine max), common (oilseed) sunflower (Helianthus annuus), and velvetleaf (Abutilon theophrasti) were planted and treated preemergence with test chemicals formulated in a non-phytotoxic solvent mixture which included a surfactant. At the same time, plants selected from these crop and weed species and also winter barley (Hordeum vulgare), canarygrass (Phalaris minor), and chickweed (Stellaria media) were treated with postemergence applications of some of the test chemicals formulated in the same manner. Plants ranged in height from 2 to 18 cm (1- to 4-leaf stage) for postemergence treatments. […] At time of treatment, test pots were flooded to 3 cm above the soil surface, treated by application of test compounds directly to the paddy water, and then maintained at that water depth for the duration of the test. […] A dash (-) response means no test result.

[7] = system: spanishneedles; assay: Test F preemergence test; assay type: in vivo, Bidens bipinnata; conditions: scale 0 to 100
From the text: as §1

Row | Structure (SMILES) | Plant response rating (0 to 100), Chickweed [2] | Plant response rating, Chickweed ([2]; 62 g ai/ha) | Plant response rating, Chickweed ([2]; 125 g ai/ha) | Plant response rating, Chickweed ([2]; 250 g ai/ha) | Plant response rating (0 to 100), Canarygrass [3] | Plant response rating, Canarygrass ([3]; 62 g ai/ha) | Plant response rating, Canarygrass ([3]; 125 g ai/ha) | Plant response rating, Canarygrass ([3]; 250 g ai/ha) | Plant response rating, Sowthistle ([4]; 16 g ai/ha, preemergence) | Sowthistle plant response rating ([4]; 62 g ai/ha, Preemergence) | Plant response rating, Sowthistle ([4]; Preemergence, 31 g ai/ha) | Plant response rating (0 to 100), Barley [5] | Plant response rating, Barley ([5]; 62 g ai/ha) | Plant response rating, Barley ([5]; 125 g ai/ha) | Plant response rating, Barley ([5]; 250 g ai/ha) | Plant response rating (0 to 100), Windgrass ([6]; 31 g ai/ha) | Plant response rating (0 to 100), Windgrass ([6]; 62 g ai/ha) | Plant response rating, Windgrass ([6]; 125 g ai/ha) | Plant response rating, Windgrass ([6]; 250 g ai/ha) | Sowthistle plant response rating ([4]; 125 g ai/ha, preemergence) | further results
1 | Cn1nc(C(F)(F)F)c(C[S+]([O-])c2ccc(Cl)c[n+]2[O-])c1OC(F)F (stereo not drawn) [Compound 6] | 0 | 40 | 85 | 95 | 0 | 0 | 0 | 10 | 0 | 90 | 50 | 0 | 0 | 0 | 0 | 50 | 98 | 100 | 100 | – | Plant response rating, Russian Thistle ([1]; 8 g ai/ha, preemergence): 0; Plant response rating, Russian Thistle ([1]; Preemergence, 16 g ai/ha): 0; Plant response rating, Russian Thistle ([1]; Preemergence, 31 g ai/ha): 0; Plant response rating, Sowthistle ([4]; 8 g ai/ha, preemergence): 0
2 | Cn1nc(C(F)(F)F)c(C[S+]([O-])c2ccc(F)c[n+]2[O-])c1OCC(F)(F)F (stereo not drawn) [Compound 67] | 0 | 60 | 70 | 95 | 0 | 0 | 10 | 10 | 80 | – | 80 | 0 | 10 | 50 | 50 | 30 | 100 | 100 | 100 | 100 | Plant response rating, Spanishneedles ([7]; 16 g ai/ha, preemergence): 0; Spanishneedles plant response rating ([7]; 125 g ai/ha, preemergence): 98; Plant response rating, Spanishneedles ([7]; Preemergence, 62 g ai/ha): 90; Plant response rating, Spanishneedles ([7]; Preemergence, 31 g ai/ha): 65; Plant response rating, Sowthistle ([4]; Preemergence, 62 g ai/ha): 100
3 | CCn1nc(C(F)(F)F)c(CS(=O)(=O)c2cc(C)cc[n+]2[O-])c1OCC(F)(F)F [Compound 64] | 0 | 0 | 0 | 0 | 0 | 0 | 5 | 10 | – | – | 0 | 0 | 0 | 5 | 20 | 0 | 90 | 98 | 100 | 100 | Plant response rating, Spanishneedles ([7]; 16 g ai/ha, preemergence): 30; Spanishneedles plant response rating ([7]; 125 g ai/ha, preemergence): 60; Plant response rating, Spanishneedles ([7]; Preemergence, 62 g ai/ha): 40; Plant response rating, Sowthistle ([4]; Preemergence, 62 g ai/ha): 100
4 | Cc1cc[n+]([O-])c([S+]([O-])Cc2c(C(F)(F)F)nn(C)c2OCC(F)(F)F)c1 (racemic) [Compound 30] | – | – | – | – | – | – | – | – | – | 100 | 100 | – | – | – | – | – | – | – | – | 100 | Russian Thistle plant response rating ([1]; 62 g ai/ha, Preemergence): 100; Russian Thistle plant response rating ([1]; 125 g ai/ha, preemergence): 100; Plant response rating, Russian Thistle ([1]; Preemergence, 16 g ai/ha): 100; Plant response rating, Russian Thistle ([1]; Preemergence, 31 g ai/ha): 100
5 | Cn1nc(C(F)(F)F)c(C[S+]([O-])c2cccc[n+]2[O-])c1Cl (stereo not drawn) [Compound 8] | – | – | – | – | – | – | – | – | – | 90 | 65 | – | – | – | – | – | – | – | – | 100 | Russian Thistle plant response rating ([1]; 125 g ai/ha, preemergence): 100
6 | Cc1cc[n+]([O-])c([S+]([O-])Cc2c(C(F)(F)F)nn(C)c2Cl)c1 (racemic) [Compound 20] | – | – | – | – | – | – | – | – | 65 | 50 | 0 | – | – | – | – | – | – | – | – | – | Plant response rating, Russian Thistle ([1]; Preemergence, 16 g ai/ha): 0; Plant response rating, Sowthistle ([4]; 8 g ai/ha, preemergence): 0
7 | Cc1cc[n+]([O-])c(S(=O)(=O)C(C)c2c(C(F)(F)F)nn(C)c2OC(F)F)c1 (stereo not drawn) [Compound 11] | – | – | – | – | – | – | – | – | – | 100 | 90 | – | – | – | – | – | – | – | – | 100 | Russian Thistle plant response rating ([1]; 62 g ai/ha, Preemergence): 100; Russian Thistle plant response rating ([1]; 125 g ai/ha, preemergence): 100; Plant response rating, Russian Thistle ([1]; Preemergence, 31 g ai/ha): 100
8 | Cn1nc(C(F)(F)F)c(C[S+]([O-])c2ccc(Cl)c[n+]2[O-])c1OCC(F)(F)F (racemic) [Compound 62] | 0 | 0 | 0 | 70 | 0 | 0 | 0 | 10 | 0 | – | 95 | 0 | 0 | 10 | 40 | 70 | 80 | 90 | 100 | 98 | Plant response rating, Spanishneedles ([7]; 16 g ai/ha, preemergence): 30; Spanishneedles plant response rating ([7]; 125 g ai/ha, preemergence): 100; Plant response rating, Spanishneedles ([7]; Preemergence, 62 g ai/ha): 75; Plant response rating, Spanishneedles ([7]; Preemergence, 31 g ai/ha): 65; Plant response rating, Sowthistle ([4]; Preemergence, 62 g ai/ha): 98
9 | Cn1nc(C(F)(F)F)c(C[S+]([O-])c2ccc(F)c[n+]2[O-])c1OC(F)F (stereo not drawn) [Compound 58] | 30 | 60 | 60 | – | 0 | 0 | 0 | 0 | – | – | 0 | 0 | 0 | 20 | 30 | 20 | 40 | 70 | 95 | 100 | Spanishneedles plant response rating ([7]; 125 g ai/ha, preemergence): 65; Spanishneedles plant response rating ([7]; 250 g ai/ha, preemergence): 100; Plant response rating, Spanishneedles ([7]; Preemergence, 62 g ai/ha): 50; Plant response rating, Spanishneedles ([7]; Preemergence, 31 g ai/ha): 50; Sowthistle plant response rating ([4]; 250 g ai/ha, preemergence): 100; Plant response rating, Sowthistle ([4]; Preemergence, 62 g ai/ha): 100
